SMILES	melting point
Clc1cc(Cl)c2oc3cc(Cl)c(Cl)cc3c2c1	202 °C
C[C@H](O)C(=O)O	53 °C
CCNc1nc(Cl)nc(N(CC)CC)n1	102 °C
CC(NC(=O)C(C)NC(=O)C(N)CCP(C)(=O)O)C(=O)O (stereo not drawn)	160 °C
CC1=C(C(=O)OCc2ccccc2)C(c2ccco2)NC(=S)N1 (stereo not drawn)	164 °C
O=C(O)COc1ccc(OCC(=O)O)cc1	248 to 251 °C
COc1ccc(/C=C(/C#N)c2nc3ccccc3c(=O)[nH]2)cc1	280 °C
Nc1c(CN2CCOCC2)c(=O)oc2ccccc12	192 °C
O=C(O)C=CC(=O)Nc1cccc(C(F)(F)F)c1	161 to 164 °C
COc1cc2c(cc1C(C)C)C(C(=O)O)C2 (stereo not drawn)	86 °C
CN(C)C(=O)Nc1cc(C(C)(C)C)on1	120 °C
CCOC(=O)c1cn2nc(OP(=S)(OCC)OCC)cc2nc1C	51 °C
CC(C)(C)c1cc(N)[nH]n1	60 to 62 °C
COC(=O)c1cc([N+](=O)[O-])ccc1SC	130 to 132 °C
Cc1nc2ccccc2c(C(=O)O)c1O	200 °C
COc1cccc(OCc2ccccc2)c1C#N	70 to 72 °C
COc1ccc2c(c1)CCC1C2CCC2(C)C(O)C(O)CC12 (stereo not drawn)	159 °C
CCCCOCCOCCOCCCC	-60 °C
COc1ccc(CC#N)cc1F	48 °C
CN(C)c1ccc2cc3ccc(N(C)C)cc3nc2c1	165 °C
COc1ccc(C#N)c(OC)c1	94 °C
O=Nc1ccc(O)c2ncccc12	245 °C
CN=C(NC)c1cc(C(C)(C)C)c(O)c(C(C)(C)C)c1	206 °C
CCOC(=O)CCCOc1ccccc1NC(=O)c1ccc2c(c1)CC1(CCC(c3ccc(C(C)(C)C)cc3)CC1)C2 (stereo not drawn)	112 °C
CN1C(C(=O)Nc2ccccn2)=C(O)c2ccccc2S1(=O)=O	198 °C
CCN=C=S	-5.9 °C

SMILES	melting point
O=c1c2ccccc2oc2ncccc12	180 to 182 °C
CC(=O)C1CC(CC(=O)O)C1(C)C (stereo not drawn)	104 to 107 °C
CC(C)CCC[C@@H](C)[C@H]1CC[C@H]2[C@@H]3CC[C@H]4CC(=O)CC[C@]4(C)[C@H]3CC[C@]12C	128 to 133 °C
CC(=O)Nc1ccc(C(C)=O)cc1	169 °C
CCCCCCCCCCCCN(CCCCCCCCCCCC)CCCCCCCCCCCC	16 °C
O=C(Oc1c(F)c(F)c(F)c(F)c1F)c1cccnc1	65.5 to 67 °C
O=S(=O)(O)CCNC(CO)(CO)CO	223 to 225 °C
FC(F)CBr	-75 °C
C1COCCN2CCOCCOCCN(CCO1)CCOCCOCC2	68 to 72 °C
Cc1cc(-c2cc(C)c(O)c(C)c2)cc(C)c1O	222 °C
c1ccc(OCc2nnc3n2NC(c2ccco2)S3)cc1 (stereo not drawn)	102 °C
N#Cc1ccc(Br)cc1Cl	70 °C
O=S(=O)(c1ccccc1)n1ccc2cc(Br)ccc21	90 to 93 °C
Cc1cc(C(c2ccc(C)o2)c2ccc(C)o2)c(O)c([N+](=O)[O-])c1	93 °C
Clc1cnc(Cl)c(Cl)c1	49 °C
CC(C)NCC(O)COc1ccc(COCCOC(C)C)cc1 (stereo not drawn)	100 °C
CCOC(=O)C(C(=O)OCC)C(Br)c1cc(C(Br)C(C(=O)OCC)C(=O)OCC)c([N+](=O)[O-])cc1[N+](=O)[O-] (stereo not drawn)	130 °C
NNC(=O)c1ccc(Cl)nc1	250 °C
CCCCCCCCCCCCC1CCCCC1	12.5 °C
CCOC(=O)CN(C)C(=O)c1nn(-c2ccccc2)nc1C	72 to 74 °C
c1ccc2c(c1)ccc1ccc3ccccc3c12	68 °C
FC(F)=C(F)C(F)=C(F)F	-132 °C
COc1ccc(C#N)c(OC(F)(F)F)c1	32 °C
C=C(C)C(=O)Nc1ccc(Cl)c(Cl)c1	128 °C
O=[N+]([O-])c1ccc(F)c(Cl)c1	44 °C
CSC(=CC(=C(C#N)C#N)c1ccc(Br)cc1)SC	138 to 142 °C

SMILES	melting point
CC1COC(=O)O1 (stereo not drawn)	-48.8 °C
COc1ccc(-c2coc3cc(O)ccc3c2=O)cc1	256 °C
O=C1c2ccccc2C(=O)N1CCCCCCCCBr	49 to 56 °C
CC12CCCCC1CCC1C2CCC2(C)C1CCC2(O)C#Cc1ccccc1 (stereo not drawn)	108 to 111 °C
c1ccc(C2=NOC(c3ccccc3)C2)cc1 (stereo not drawn)	75 °C
O=C(Nc1ccccc1)OC1CCCCC(OC(=O)Nc2ccccc2)C1 (stereo not drawn)	170 °C
Cc1ccc(C(c2ccc(C(c3ccc(C)o3)c3ccc(C)o3)cc2)c2ccc(C)o2)o1	156 °C
NS(=O)(=O)c1ccc(CCCCCO)cc1	86 °C
CC12CCC(C(Br)=C(Br)C1=O)C2(C)C (stereo not drawn)	103 °C
CCCCCCCCCCCCCCCCCC[Si](OC)(OC)OC	15 °C
O=C(O)c1ccncc1C(=O)O	262 °C
O=C(CCc1ccc(O)cc1)c1c(O)cc(O)cc1OC1OC(CO)C(O)C(O)C1O (stereo not drawn)	110 °C
CCOC(=O)c1c(NC(=S)Nc2ccc(Br)cc2)sc2c1CCCC2	204 to 205 °C
CC(=O)CS(=O)(=O)c1ccc(C)cc1	52 to 54 °C
Cc1ccc(OCC(=O)NN)c2c1CCC2	145 to 156 °C
C/C(CCc1oc2ccccc2c1-c1ccc(C)o1)=N/O	104 to 105 °C
COc1c(C)c2c(c(O)c1CC=C(C)CCC(=O)OCCN1CCOCC1)C(=O)OC2	93.5 °C
Cc1nc(-c2ccc(C(=O)Cl)s2)cs1	108 to 112 °C
CCCOCC(=Nc1ccc(Cl)cc1C(F)(F)F)n1ccnc1	63.5 °C
O=C(O)CC1CCCC1	12 °C
CCOC(=O)NNC(=O)Nc1ccc(Cl)c(Cl)c1	207 °C
NNc1ccc(I)cc1	101 to 102 °C
CCOC(=O)c1csc(-c2ccc(F)cc2F)n1	50 to 52 °C
CC(=O)OC1CCC2(C)C(=CC(=O)C3C4CCC(=O)C4(C)CCC32)C1 (stereo not drawn)	182 °C
COC(=O)CC(=O)c1ccc(C(F)(F)F)cc1	57 to 62 °C
C1=CCC(c2ccccc2)(c2ccccc2)C=C1	57 °C

SMILES	melting point
OCCCCCCCCCCl	28 °C
CCCCCCCC(=O)OCCC	-46.2 °C
COc1cccc2cc(C(=O)C3CC(C)(c4ccccc4)C3)oc12 (stereo not drawn)	104 to 105 °C
Cc1c(C)c(C)c(C(=O)c2ccccc2C(=O)O)c(C)c1C	278 to 282 °C
Fc1cc(I)ccn1	58 °C
O=C(Cl)c1cc(-c2cccs2)on1	77 to 78 °C
O=[N+]([O-])c1ccc(NN=C(Cc2ccccc2)C(O)Cc2ccccc2)cc1 (stereo not drawn)	122 °C
CC(=O)NC1C(Oc2ccc([N+](=O)[O-])cc2)OC(CO)C(O)C1O (stereo not drawn)	264 °C
CC(=O)c1cc(C)ccc1C	-18.1 °C
Cc1nc(-c2ccc3c(c2)CCO3)sc1C(=O)O	221 to 225 °C
Nc1ccc2c3c(cccc13)C(=O)NC2=O	360 °C
COc1c(F)cc(O)cc1F	69 °C
CCC1N(O)C(C)(C)C(C(=O)O)=[N+]1[O-] (stereo not drawn)	98.8 to 99 °C
CC(=O)c1cc(-c2c(Cl)cccc2Cl)no1	117 to 119 °C
c1ccc(N=NNc2ccccc2)cc1	98 °C
O=C(O)c1cccc(-c2ncccn2)c1	180 to 182 °C
BrCc1ccc(-c2cccs2)cc1	83 to 84 °C
COCCOc1cnc(NS(=O)(=O)c2ccccc2)nc1	152 °C
FC(F)(F)c1cccc(Br)c1	1 °C
COc1ccc([N+](=O)[O-])c(I)c1	68 to 73 °C
CC(=O)NC(C)=O	79 °C
Nc1ncn[nH]1	159 °C
CCOC(=O)c1sc(SC(C)C)c2c1CC(C)(C)CC2=O	87 to 89 °C
Cc1cccc(/N=N/c2c(C)[nH]c(=S)c(C#N)c2C)c1C	259 °C
Cc1cc2c(o1)-c1c(oc3ccc(Cl)cc13)CCC2(C)c1ccccc1 (stereo not drawn)	128 °C
Cc1cccc(C)c1NC(=O)c1cncc(Cl)n1	122 °C

SMILES	melting point
NC(=S)c1ccc(OCC(F)(F)F)nc1	120 to 123 °C
Nc1ccc(S(=O)(=O)F)cc1	68.5 °C
Nc1ccc(C=C/C(=N/O)c2ccccc2)cc1	138 to 139 °C
NC(=S)Nc1cccc(F)c1	113 to 117 °C
COc1ccccc1C	-34.1 °C
Nc1c2ccccc2nc2ccccc12	241 °C
OCc1cccc(Cn2cncn2)c1	56 to 59 °C
C/C=C(C)/C=C/C=C(C)C	-35.4 °C
O=[N+]([O-])c1cc(Cl)ccc1S(=O)(=O)c1ccccc1	115 to 117 °C
O=P(c1ccccc1)(c1ccccc1)C1CCCCC1	166 °C
CCCCCCCOCC	-68.3 °C
Cc1cc(Cl)cc2c(O)c(C(=O)O)cnc12	303 to 308 °C
OCc1nc2ccccc2[nH]1	165 to 172 °C
O=C(O)[C@@H]1CCCC[C@H]1C(=O)c1ccccc1 (relative stereo)	150 to 153 °C
CC12CCC3(CC1CCC1C2CCC2(C)C1CCC2(C)O)OCCO3 (stereo not drawn)	192 to 193 °C
Nc1nc(O)nc2[nH]cnc12	300 °C
C1=CCc2ccccc2C1	25 °C
CC(=O)N=c1sc(S(N)(=O)=O)nn1C	214 °C
Brc1ccc(Oc2ccc(Br)c(Br)c2)cc1	48 to 49 °C
OCCNC(CO)(CO)CO	89 °C
O=C(O)c1ccc2cc(C(=O)O)ccc2c1	300 °C
Brc1ccc(Oc2ccc(Br)cc2Br)c(Br)c1	78.5 to 79 °C
O=C(OC(=O)C(c1ccccc1)c1ccccc1)C(c1ccccc1)c1ccccc1	98 °C
O=C(CNc1cccc([N+](=O)[O-])c1)c1ccccc1	169 °C
